Data published in patent publication US20210063414A1, “METHODS FOR PREVENTING AND/OR TREATING BONE LOSS CONDITIONS BY MODULATING IRISIN” (Dana-Farber Cancer Institute, Inc., priority 2018, published 2021).

Key:
sclerostin = test: Irisin injection in mice: sclerostin mRNA in osteocyte-enriched bones and plasma sclerostin protein (ELISA); type: in vivo; details: co-injection of 1 mg/kg inhibitor with irisin
Method: 8 weeks old mice were injected daily with indicated dose of irisin for 6 days. […] were collected and treated with collagenase to yield osteocyte-enriched bones. Sclerostin mRNA level from osteocyte-enriched tibia was analyzed by qPCR (FIG. 7A). Cyclophilin was used as a house-keeping gene. Plasma was collected to analyze the circulating sclerostin protein level by ELISA assay (FIG. 7B). Data are represented as mean±SEM. For FIG. 7A and FIG. 7B, n=5 animals/group. * indicates p<0.05, and *** indicates p<0.001.
Certain materials and methods were used to generate the results described herein. For example, the data shown in FIG. 1A resulted from MLO-Y4 (an osteocyte-like cell line) cells treated with the indicated concentration of irisin and hydrogen peroxide for 4 hours. Cells were stained with Hoechst 33342 (ThermoFisher Scientific, catalog number H3570) and Eth-D1 (ThermoFisher Scientific, catalog number E1169) and analyzed to determine the percentage of cell death using ImageJ. […] Co-precipitated irisin was analyzed by immunoblot analysis against flag tag (Sigma Aldrich, catalog number A8592). The data shown in FIGS. 5A and 5B were generated from MLO-Y4 cells treated and analyzed as in the experiments used to generate the data shown in FIG. 2D, except that pre-treatment of 100 nM RGDS (FIG. 5A) or echistatin (R & D Systems Inc., catalog number 3202/100U) (FIG. 5B) for 10 minutes was performed before irisin treatment. […] RNAs were extracted from the cells and the sclerostin mRNA level was analyzed by qPCR (FIG. 6A) or treated and analyzed as in (FIG. 6A), except that pre-treatment of 10 μM RGDS, RGDyK (Selleck, catalog number S7844), or echistatin was performed for 10 minutes before irisin treatment. […] Sclerostin mRNA level was analyzed by qPCR (FIG. 7A). […] Epididymal fats were collected, RNAs were extracted from the tissues, and mRNA levels of the indicated genes were analyzed by qPCR. […]

[1] = test system: primary inguinal fat cells; test: Ucp1 mRNA in primary inguinal fat cells; type: cell-based, mice; details: 10 μM peptide
Method: FIG. 18A-FIG. 18B show mRNA and protein levels of indicated genes. 1 mg/kg irisin was injected to 8-week old mice every other day for 6 days. mRNA levels of indicated genes in inguinal fat were analyzed by qRT-PCR. Cyclophilin was used for housekeeping gene (FIG. 18A). Inguinal fats were also lysed to detect the indicated protein level using immunoblot analysis (FIG. 18B). FIGS. 18C and 18D show mRNA and protein levels of indicated genes. Mice were treated and analyzed as (A-B) with addition of coinjection of […] control RGD peptide or cyclo RGDyK (cRGDyK). mRNA levels of indicated genes in inguinal fat were analyzed by qRT-PCR. Cyclophilin was used for house-keeping gene (FIG. 18C). Inguinal fats were also lysed to detect the indicated protein level using immunoblot analysis (FIG. 18D). […] Ucp1 mRNA level was analyzed by qRT-PCR. […]
Inguinal fat tissue from 6 weeks old mice was dissected and washed with PBS, minced and digested for 1 hour at 37° C. in PBS containing 10 mM CaCl2, 2.4 U/ml dispase II (Roche) and 10 mg/ml collagenase D (Roche). […] After that, cells were maintained in 1 μM rosiglitazone in the presence of 0, 0.5, 5 or 50 ng/ml recombinant […] his-tag irisin protein for 4 days with medium change every other day. mRNA levels were analyzed as described in gene expression analysis. […]

N=C(N)NCCC[C@@H]1NC(=O)[C@H](CCCCN)NC(=O)[C@@H](Cc2ccc(O)cc2)NC(=O)[C@H](CC(=O)O)NC(=O)CNC1=O [cyclo RGDyK]
effect on irisin-induced gene expression of sclerostin in osteocyte-enriched bones (sclerostin): prevented | effect on irisin-induced sclerostin protein level in plasma (sclerostin): prevented | effect on irisin-induced gene expression (Ucp1) [1]: prevented irisin-induced gene expression
